As usually defined, the inhibition in vivo is the change of the read-out against control, counted positive when it falls. A low value points to a response near the control. What is called IC50 is the midpoint of a concentration-inhibition curve. The low end stands for inhibition by little substance, the high end for a need for much substance.

The subject of experiment [1] is plasma extravasation induced by capsaicin in trachea. Put plainly: Inhibitory effect on plasma extravasation induced by capsaicin in trachea of guinea pigs. The format is in vivo, guinea pigs (Hartley type white male). The following applies: Cavia porcellus, iv, 5 min, 5 min before capsaicin (150 μg/kg i.v.), guinea pig trachea, n=6; for inhibition in vivo at 0.1 mg/kg: 0.1 mg/kg i.v.; for inhibition in vivo at 0.03 mg/kg: 0.03 mg/kg i.v. Here is the method:
Inhibitory effect on plasma extravasation induced by capsaicin in trachea of guinea pigs
Guinea pigs (Hartley type white male guinea pigs), (n=6) were anesthetized with 35 mg/kg of pentobarbital injected intraperitoneally (i.p.), then test compounds were administered intravenously (i.v.). After 5 minutes, a mixed solution of capsaicin (150 μg/kg) and Evans' blue dye (20 mg/kg) was administered intravenously to cause reaction. Ten minutes later, test animals were sacrificed by cutting the aorta, then perfused through pulmonary artery with 50 ml of physiological saline. The trachea was excised, and its wet weight was measured. The trachea was incubated at room temperature in 1 ml of acetone-0.3% sodium sulfate (7:3) overnight and Evans' blue dye was extracted from the trachea. The extract solution was centrifuged at 2800 rpm for 5 minutes. The amount of Evans' blue dye in the supernatant was quantified by measuring absorbance at […].
Plasma extravasation was expressed in terms of the amount of Evans' blue dye (μg) relative to the weight of the trachea (g). The efficacy of the drug was evaluated by calculating the % inhibition in accordance with the following formula. [formula] A: the amount of Evan's blue dye (μg/g) in each test animal B: the mean amount of Evan's blue dye (μg/g) of the group untreated with capsaicin.
C: the mean amount of Evan's blue dye (μg/g) of control group

The next experiment has as its target T1, substance P receptor (Homo sapiens, UniProt P25103).
T1 construct: The receptor was prepared from human lymphoblast cells (IM-9); endogenous in cells; host or cells: IM-9 human lymphoblast cells (crude membrane preparation)
Put plainly: Radioligand receptor binding inhibitory activity using receptor from human lymphoblast cells (IM-9), 125I-BHSP. The following applies: human IM-9 cell receptor, 25° C., 30 minutes, pH 7.4, n=1. The protocol: Radioligand receptor binding inhibitory activity
Binding inhibitory activity using receptor from human lymphoblast cells (IM-9)
The method of A. Margaret "Molecular Pharmacology 42, p.458 (1992)" was modified and used. The receptor was prepared from human lymphoblast cells (IM-9). IM-9 cells (2×10^5 cells/ml) were inoculated and incubated for 3 days (one liter), which was then subjected to centrifuge for 5 minutes at 500×g to obtain cell pellets. The pellets were washed once with phosphate buffer (Flow Laboratories, CAT. No. 28-103-05), which were then crushed using Polytron.homogenizer "Kinematika, Germany" in 30 ml of 50 mM Tris-HCl buffer (pH 7.4) containing 120 mM sodium chloride, 5 mM potassium chloride, 2 μg/ml chymostatin, 40 μg/ml bacitracin, 5 μg/ml phosphoramidon, 0.5 mM phenylmethyl sulfonyl fluoride, 1 mM ethylenediamine tetra-acetic acid, which was subjected to centrifuge at 40,000×g for 20 minutes. The residue was washed twice with 30 ml of the above-mentioned buffer, which was then preserved frozen (-80° C.) as a specimen of the receptor.
The specimen was suspended in a reaction buffer (50 mM Tri-HCl buffer (pH 7.4), 0.02% bovine serum albumin, 1 mM phenylmethylsulfonyl fluoride, 2 μg/chymostatin, 40 μg/ml bacitracin, 3 mM manganese chloride) and 100 ul portion was the suspension was used in the reaction. After addition of the sample and ^125 I-BHSP (0.46 KBq), the reaction was allowed to proceed in 0.2 ml of reaction buffer at 25° C. for 30 minutes. The amount of nonspecific binding was determined by adding substance P at a final concentration of 2×10^-6 M. After the reaction, using a cell harvester (290 PHD, Cambridge Technology, Inc, U.S.A.), rapid filtration was carried out through a glass filter (GF/B, Whatman, U.S.A.) to stop the reaction. After washing three times with 250 ul of 50 mM of Tris-HCl buffer (pH 7.4) containing 0.02% bovine serum albumin, the radioactivity remaining on the filter was determined with a gamma counter. Before use, the filter was immersed in 0.1% polyethyleneimine for 24 hours and air-dried. […] (Radioligand means substance P labelled with ^125 I.) The number of this experiment is one.

T1 sequence (P25103 whole entry): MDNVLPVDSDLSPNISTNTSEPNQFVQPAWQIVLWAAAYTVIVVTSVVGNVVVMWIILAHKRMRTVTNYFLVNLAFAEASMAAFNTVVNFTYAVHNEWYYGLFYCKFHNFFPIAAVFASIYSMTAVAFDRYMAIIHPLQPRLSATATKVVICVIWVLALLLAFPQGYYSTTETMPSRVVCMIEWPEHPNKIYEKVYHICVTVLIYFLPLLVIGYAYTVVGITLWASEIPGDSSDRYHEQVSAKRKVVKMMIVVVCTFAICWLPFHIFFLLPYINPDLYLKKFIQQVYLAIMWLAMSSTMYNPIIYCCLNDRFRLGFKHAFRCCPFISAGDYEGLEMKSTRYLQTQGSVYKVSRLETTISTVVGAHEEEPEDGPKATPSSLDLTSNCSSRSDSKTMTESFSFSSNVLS

`CN(Cc1cc(C(F)(F)F)cc(C(F)(F)F)c1)C(=O)c1c(-c2ccc(F)cc2)c2c(c(=O)n1C)CCCN2` [Example 27, N-[3,5-Bis(trifluoromethyl)benzyl]-8-(4-fluorophenyl)-1,2,3,4,5,6-hexahydro-N, 6-dimethyl-5-oxo-7-pyrido[4,3-b]pyridinecarboxamide] displayed an inhibition in vivo at 0.1 mg/kg in experiment [1] of 74%. The IC50 on substance P receptor came to 0.18 nM.
With `CN(Cc1cc(C(F)(F)F)cc(C(F)(F)F)c1)C(=O)c1c(-c2ccccc2)c2cccnc2c(=O)n1C` [Example 36, N-[3,5-Bis(trifluoromethyl)benzyl]-7,8-dihydro-N, 7-dimethyl-8-oxo-5-phenyl-6-pyrido[3,4-b]pyridinecarboxamide], in experiment [1], the inhibition in vivo at 0.03 mg/kg is 54.3%. The IC50 at substance P receptor was 0.34 nM.
For the molecule `CN(Cc1cc(C(F)(F)F)cc(C(F)(F)F)c1)C(=O)c1c(-c2ccc(F)cc2)c2ccn(C)c2c(=O)n1C` [Example 39, N-[3,5-Bis(trifluoromethyl)benzyl]-4-(4-fluorophenyl)-6,7-dihydro-N,1,6-trimethyl-7-oxo-5-pyrrolo[2,3-c]pyridinecarboxamide], in experiment [1], the inhibition in vivo at 0.1 mg/kg is 67.9%. On substance P receptor, the IC50 amounted to 0.28 nM.
In the same order, the values of `CN(Cc1cc(C(F)(F)F)cc(C(F)(F)F)c1)C(=O)c1c(-c2ccc(F)cc2)c2scnc2c(=O)n1C` [Example 41, N-[3,5-Bis(trifluoromethyl)benzyl]-7-(4-fluorophenyl)-4,5-dihydro-N, 5-dimethyl-4-oxo-6-thiazolo[4,5-c]pyridinecarboxamide] are 46.9% and 1.1 nM.
In the same order, the values of `CN(Cc1cc(C(F)(F)F)cc(C(F)(F)F)c1)C(=O)c1c(-c2ccccc2)c2c(c(=O)n1C)N(C)CCC2` [Example 49, N-[3,5-Bis(trifluoromethyl)benzyl]-1,2,3,4,7,8-hexahydro-5-phenyl-N,1,7-trimethyl-8-oxo-6-pyrido[3,4-b]pyridinecarboxamide] are 66.7% and 1.3 nM.
The molecule `CN1CCc2c(-c3ccccc3)c(C(=O)N(C)Cc3cc(C(F)(F)F)cc(C(F)(F)F)c3)n(C)c(=O)c2C1` [Example 50, N-[3,5-Bis(trifluoromethyl)benzyl]-1,2,5,6,7,8-hexahydro-N,2,7-trimethyl-1-oxo-4-phenyl-3-pyrido[3,4-c]pyridinecarboxamide] had an inhibition in vivo at 0.1 mg/kg in experiment [1] of 52.2%. The half-inhibitory concentration (IC50) at substance P receptor was found to be 0.4 nM.
Molecule `CN(Cc1cc(C(F)(F)F)cc(C(F)(F)F)c1)C(=O)c1c(-c2ccc(F)cc2)c2c(c(=O)n1C)CNCC2` [Example 53, N-[3,5-Bis(trifluoromethyl)benzyl]-4-(4-fluorophenyl)-1,2,5,6,7,8-hexahydro-N,2-dimethyl-1-oxo-3-pyrido[3,4-c]pyridinecarboxamide] returned an inhibition in vivo at 0.1 mg/kg in experiment [1] of 59.9%. The molecule further yielded a half-maximal inhibitory concentration (IC50) at substance P receptor of 0.15 nM.
In the same order, the values of `CN(Cc1cc(C(F)(F)F)cc(C(F)(F)F)c1)C(=O)c1c(-c2ccccc2)c2c(c(=O)n1C)CNCC2` [Example 54, N-[3,5-Bis(trifluoromethyl)benzyl]-1,2,5,6,7,8-hexahydro-N,2-dimethyl-1-oxo-4-phenyl-3-pyrido[3,4-c]pyridinecarboxamide] are 48.3% and 0.4 nM.
In experiment [1], `Cc1ccc(-c2c(C(=O)N(C)Cc3cc(C(F)(F)F)cc(C(F)(F)F)c3)n(C)c(=O)c3ncccc23)cc1` [Example 56, N-[3,5-Bis(trifluoromethyl)benzyl]-7,8-dihydro-N, 7-dimethyl-5-(4-methylphenyl)-8-oxo-6-pyrido[3,4-b]pyridinecarboxamide] registered an inhibition in vivo at 0.03 mg/kg of 58.1%. Further, the IC50 on substance P receptor worked out at 0.34 nM.
`COc1ccc(-c2c(C(=O)N(C)Cc3cc(C(F)(F)F)cc(C(F)(F)F)c3)n(C)c(=O)c3ncccc23)cc1` [Example 57, N-[3,5-Bis(trifluoromethyl)benzyl]-7,8-dihydro-5-(4-methoxyphenyl)-N,7-dimethyl-8-oxo-6-pyrido[3,4-b]pyridinecarboxamide] showed an inhibition in vivo at 0.1 mg/kg in experiment [1] of 51.4%. This molecule also returned a half-inhibitory concentration (IC50) at substance P receptor of 3.8 nM.
In the same order, the values of `Cc1ccc(-c2c(C(=O)N(C)Cc3cc(C(F)(F)F)cc(C(F)(F)F)c3)n(C)c(=O)c3cnccc23)cc1` [Example 58, N-[3,5-Bis(trifluoromethyl)benzyl]-1,2-dihydro-N, 2-dimethyl-4-(4-methylphenyl)-1-oxo-3-pyrido[3,4-c]pyridinecarboxamide] are 35.2% and 0.72 nM.
In experiment [1], `Cc1ccc(-c2c3c(c(=O)n(C)c2C(=O)N(C)Cc2cc(C(F)(F)F)cc(C(F)(F)F)c2)CN(C)CC3)cc1` [Example 59, N-[3,5-Bis(trifluoromethyl)benzyl]-1,2,5,6,7,8-hexahydro-N,2,7-trimethyl-4-(4-methylphenyl)-1-oxo-3-pyrido[3,4-c]pyridinecarboxamide] displayed an inhibition in vivo at 0.03 mg/kg of 55%. This molecule came in with an IC50 at substance P receptor of 0.12 nM.

The values above are taken from patent US5585385A, “Heterocyclic compounds, their production and use as tachykinin reactor antagonists” (Takeda Chemical Industries, Ltd., priority 1993, dated 1996).
